Legend:
[1] = target: D(1A) dopamine receptor (Homo sapiens, UniProt P21728); test: Displacement of [3H][…] from human dopamine D1 receptor by PDSP assay
[2] = target: T1, D(2) dopamine receptor (Homo sapiens, UniProt P14416); test: Displacement of [3H]N-methylspiperone from human dopamine D2 receptor by PDSP assay
[3] = target: T2, D(3) dopamine receptor (Homo sapiens, UniProt P35462); test: Displacement of [3H]N-methylspiperone from human dopamine D3 receptor by PDSP assay
[4] = target: Sigma non-opioid intracellular receptor 1 (Homo sapiens, UniProt Q99720); test: Displacement of [3H](+)-pentazocine from human sigma1 receptor by PDSP assay
Sigma non-opioid intracellular receptor 1, sequence (Q99720 whole entry): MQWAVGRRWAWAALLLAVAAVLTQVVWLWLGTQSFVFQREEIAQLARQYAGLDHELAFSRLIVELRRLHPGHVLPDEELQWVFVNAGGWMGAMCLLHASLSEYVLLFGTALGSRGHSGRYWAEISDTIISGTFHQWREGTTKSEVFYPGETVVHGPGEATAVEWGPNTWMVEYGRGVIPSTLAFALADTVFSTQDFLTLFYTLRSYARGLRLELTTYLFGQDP

[5] = Displacement of [3H]DTG from human sigma2 receptor by PDSP assay
[6] = species: Homo sapiens; test: Selectivity ratio of Ki for human dopamine D2 receptor to human dopamine D1 receptor
[7] = species: Homo sapiens; test: Selectivity ratio of Ki for human dopamine D3 receptor to human dopamine D1 receptor
[8] = species: Homo sapiens; test: Selectivity ratio of Ki for human dopamine D2 receptor to human dopamine D3 receptor
[9] = species: Homo sapiens; test: Selectivity ratio of Ki for human sigma1 receptor to human sigma2 receptor
[10] = Binding affinity to sigma2 receptor (unknown origin) by PDSP assay; design: species or system Homo sapiens
[11] = target: T2, D(3) dopamine receptor; test: Binding affinity to dopamine D3 receptor (unknown origin) by PDSP assay
[12] = system: MDA-MB-231; test: Cytotoxicity against human MDA-MB-231 cells assessed as cell viability after 24 hrs by Alamar blue assay; format: functional, cell-based; details: MDA-MB-231, 24 h
[13] = target: T1, D(2) dopamine receptor; test: Displacement of [3H]N-methylspiperone from human dopamine D2 receptor at 50 uM by PDSP assay

D(1A) dopamine receptor, sequence (P21728 whole entry): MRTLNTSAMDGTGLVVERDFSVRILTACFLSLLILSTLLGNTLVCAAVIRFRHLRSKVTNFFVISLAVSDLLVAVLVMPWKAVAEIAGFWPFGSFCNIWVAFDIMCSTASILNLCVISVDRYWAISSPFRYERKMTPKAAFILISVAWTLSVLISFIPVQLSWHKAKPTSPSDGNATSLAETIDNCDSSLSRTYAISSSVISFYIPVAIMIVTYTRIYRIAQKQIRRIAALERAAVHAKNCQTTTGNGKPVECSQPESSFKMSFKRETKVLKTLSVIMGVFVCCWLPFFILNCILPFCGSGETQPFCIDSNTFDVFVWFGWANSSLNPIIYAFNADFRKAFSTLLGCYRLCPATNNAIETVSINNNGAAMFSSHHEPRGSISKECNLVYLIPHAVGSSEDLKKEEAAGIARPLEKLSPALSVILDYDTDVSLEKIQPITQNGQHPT
T2 sequence (P35462 whole entry): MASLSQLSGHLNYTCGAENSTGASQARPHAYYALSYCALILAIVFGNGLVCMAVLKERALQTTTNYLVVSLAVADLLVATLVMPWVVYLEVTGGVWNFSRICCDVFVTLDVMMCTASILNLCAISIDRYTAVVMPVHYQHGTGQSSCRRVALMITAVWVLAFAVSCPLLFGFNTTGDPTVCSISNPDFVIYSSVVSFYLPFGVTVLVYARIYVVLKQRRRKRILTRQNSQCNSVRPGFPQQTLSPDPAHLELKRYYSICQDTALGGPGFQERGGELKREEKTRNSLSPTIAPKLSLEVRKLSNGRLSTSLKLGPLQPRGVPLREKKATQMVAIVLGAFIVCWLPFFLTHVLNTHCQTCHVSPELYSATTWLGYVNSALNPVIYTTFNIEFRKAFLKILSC
T1 sequence (P14416 whole entry): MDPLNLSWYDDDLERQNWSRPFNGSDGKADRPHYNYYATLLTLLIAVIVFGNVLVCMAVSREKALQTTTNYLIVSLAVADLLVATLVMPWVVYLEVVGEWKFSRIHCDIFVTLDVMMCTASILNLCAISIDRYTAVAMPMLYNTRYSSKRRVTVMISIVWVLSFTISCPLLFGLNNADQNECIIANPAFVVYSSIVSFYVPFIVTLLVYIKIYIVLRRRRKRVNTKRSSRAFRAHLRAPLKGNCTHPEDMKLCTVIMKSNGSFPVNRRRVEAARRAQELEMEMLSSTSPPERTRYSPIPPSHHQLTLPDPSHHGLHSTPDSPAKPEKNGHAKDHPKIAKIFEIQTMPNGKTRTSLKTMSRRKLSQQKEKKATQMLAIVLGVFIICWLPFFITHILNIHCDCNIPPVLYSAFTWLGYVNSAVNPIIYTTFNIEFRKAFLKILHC

| Compound | Ki [1] [nM] | Ki ([2]; read-out: Ki) [nM] | Ki [3] [nM] | Ki [4] [nM] | Ki [5] [nM] | Ratio Ki [6] | Ratio Ki [7] | Ratio Ki [8] | Ratio Ki [9] | Ki [10] [nM] | Ki [11] [nM] | IC50 [12] [nM] | Ki [2] | inhibition [13] [%] |
| --- | --- | --- | --- | --- | --- | --- | --- | --- | --- | --- | --- | --- | --- | --- |
| COc1cc2c(cc1O)C1Cc3ccc(OCCCO)c(OC)c3CN1CC2 (stereo unspecified) | 6.7 | 211 | 110 | 53 | 3.8 | 31.5 | 16.4 | 1.9 | 13.9 |  |  |  |  |  |
| CCCCOc1ccc2c(c1OC)CN1CCc3cc(OC)c(O)cc3C1C2 (stereo unspecified) |  | 121 | 65 | 13 | 49 |  |  |  |  |  |  |  |  |  |
| CCCOc1ccc2c(c1OC)CN1CCc3cc(OC)c(O)cc3C1C2 (stereo unspecified) | 7.8 | 99 | 53 | 57 | 6.7 |  |  |  |  |  |  |  |  |  |
| CCCCCOc1ccc2c(c1OC)CN1CCc3cc(OC)c(O)cc3C1C2 (stereo unspecified) | 19 | 283 | 101 | 119 | 97 | 14.9 | 5.3 | 2.8 | 1.22 |  |  |  |  |  |
| CCN(CCc1ccc(O)c(OC)c1)Cc1cccc(O)c1OC | > 10000 | > 10000 | 1810 | 350 | 788 |  |  |  |  |  |  |  |  |  |
| COc1cc2c(cc1O)C(C)N(Cc1cccc(O)c1OC)CC2 (stereo unspecified) | 833 | 1100 | 1370 | 130 | 301 |  |  |  |  |  |  |  |  |  |
| COc1cc2c(cc1O)C1Cc3ccc(O)c(OC)c3CN1CC2 (racemic) | 5.6 | 116 | 101 | 269 | 9 | 20.6 | 18 | 1.1 | 30 |  |  |  |  |  |
| COc1cc2c(cc1O)[C@@H]1Cc3ccc(O)c(OC)c3CN1CC2 [STEPHOLIDINE] |  |  |  |  |  |  |  |  |  | 54 | 30 |  |  |  |
| COc1cc2c(cc1O)C1Cc3ccc(OC)c(OC)c3CN1CC2 (stereo unspecified) |  |  | 37 |  | 1 |  |  |  |  |  |  | 178000 |  |  |
| CCCCCCOc1ccc2c(c1OC)CN1CCc3cc(OC)c(O)cc3C1C2 (stereo unspecified) | 40 |  | 220 | 37 | 107 |  | 5.5 |  | 0.35 |  |  |  | Not Active | < 50 |
| CCOc1ccc2c(c1OC)CN1CCc3cc(OC)c(O)cc3C1C2 (stereo unspecified) | 12.4 | 159 | 44 | 124 | 1.3 | 12.8 | 3.5 | 3.6 | 95 |  |  |  |  |  |
| COc1cc(CCN(C)Cc2cccc(O)c2OC)ccc1O | 3110 | > 10000 | 2680 | 122 | 227 |  |  |  |  |  |  |  |  |  |
| COc1cc2c(cc1O)C1Cc3ccc(OCC4CC4)c(OC)c3CN1CC2 (stereo unspecified) | 12 |  |  | 12 | 2.4 |  |  |  |  |  |  |  |  |  |

From ChEMBL document CHEMBL3779868, “Tetrahydroprotoberberine alkaloids with dopamine and σ receptor affinity” (Bioorg Med Chem, 2016)
